Test results published in ChEMBL document CHEMBL5126624, “Targeted Isolation of Anti-inflammatory Lignans from Justicia aequilabris by Molecular Networking Approach” (J Nat Prod, 2022).

Legend:
RAW264.7 [1] = assay: Antiinflammatory activity in mouse RAW264.7 cells assessed as decrease in IFN-gamma and LPS-induced IL-1beta production by measuring IL-1beta level at 6.3 uM after 24 hrs by ELISA (reference value: 73.3 +/- 1.8 pg/mg); assay type: functional
RAW264.7 [2] = assay: Antiinflammatory activity in mouse RAW264.7 cells assessed as decrease in IFN-gamma and LPS-induced IL-1beta production by measuring IL-1beta level at 3.1 uM after 24 hrs by ELISA (reference value: 73.3 +/- 1.8 pg/mg); assay type: functional
RAW264.7 [3] = assay: Antiinflammatory activity in mouse RAW264.7 cells assessed as decrease in IFN-gamma and LPS-induced nitric oxide production after 24 hrs by ELISA; assay type: functional, cell-based; details: RAW264.7, 24 h
RAW264.7 [4] = assay: Antiinflammatory activity in mouse RAW264.7 cells assessed as decrease in IFN-gamma and LPS-induced IL-1beta production by measuring IL-1beta level at 25 uM after 24 hrs by ELISA (reference value: 73.3 +/- 1.8 pg/mg); assay type: functional
RAW264.7 [5] = assay: Antiinflammatory activity in mouse RAW264.7 cells assessed as decrease in IFN-gamma and LPS-induced IL-1beta production at 25 uM after 24 hrs by ELISA; assay type: functional
[6] = Cytotoxicity in LPS-stimulated mouse RAW264.7 cells assessed as reduction in cell viability incubated for […] by alamar blue dye based colorimetric assay; assay type: toxicity; details: LPS-stimulated RAW264.7 cells
RAW264.7 [7] = assay: Antiinflammatory activity in mouse RAW264.7 cells assessed as decrease in IFN-gamma and LPS-induced IL-1beta production by measuring IL-1beta level at 12.5 uM after 24 hrs by ELISA (reference value: 73.3 +/- 1.8 pg/mg); assay type: functional
RAW264.7 [8] = assay: Antiinflammatory activity in mouse RAW264.7 cells assessed as decrease in IFN-gamma and LPS-induced IL-1beta production at 50 uM after 24 hrs by ELISA; assay type: functional
RAW264.7 [9] = assay: Antiinflammatory activity in mouse RAW264.7 cells assessed as decrease in IFN-gamma and LPS-induced IL-1beta production by measuring IL-1beta level at 50 uM after 24 hrs by ELISA (reference value: 73.3 +/- 1.8 pg/mg); assay type: functional
RAW264.7 [10] = assay: Antiinflammatory activity in mouse RAW264.7 cells assessed as decrease in IFN-gamma and LPS-induced IL-1beta production at 6.7 uM after 24 hrs by ELISA; assay type: functional
RAW264.7 [11] = assay: Antiinflammatory activity in mouse RAW264.7 cells assessed as decrease in IFN-gamma and LPS-induced IL-1beta production by measuring IL-1beta level at 8.4 uM after 24 hrs by ELISA (reference value: 73.3 +/- 1.8 pg/mg); assay type: functional
RAW264.7 [12] = assay: Antiinflammatory activity in mouse RAW264.7 cells assessed as decrease in IFN-gamma and LPS-induced IL-1beta production by measuring IL-1beta level at 2.1 uM after 24 hrs by ELISA (reference value: 73.3 +/- 1.8 pg/mg); assay type: functional
RAW264.7 [13] = assay: Antiinflammatory activity in mouse RAW264.7 cells assessed as decrease in IFN-gamma and LPS-induced IL-1beta production by measuring IL-1beta level at 16.7 uM after 24 hrs by ELISA (reference value: 73.3 +/- 1.8 pg/mg); assay type: functional
RAW264.7 [14] = assay: Antiinflammatory activity in mouse RAW264.7 cells assessed as decrease in IFN-gamma and LPS-induced IL-1beta production by measuring IL-1beta level at 4.2 uM after 24 hrs by ELISA (reference value: 73.3 +/- 1.8 pg/mg); assay type: functional
RAW264.7 [15] = assay: Antiinflammatory activity in mouse RAW264.7 cells assessed as maximum decrease in IFN-gamma and LPS-induced IL-1beta production after 24 hrs by ELISA; assay type: functional
RAW264.7 [16] = assay: Antiinflammatory activity in mouse RAW264.7 cells assessed as decrease in IFN-gamma and LPS-induced IL-1beta production by measuring IL-1beta level at 10 uM after 24 hrs by ELISA (reference value: 73.3 +/- 1.8 pg/mg); assay type: functional

Structure (SMILES)	Activity (RAW264.7 [1])	IC50 (RAW264.7 [3])	Activity (RAW264.7 [4])	CC50 at 24 h [6]	Activity (RAW264.7 [7])	Activity (RAW264.7 [11])	Activity (RAW264.7 [12])	Activity (RAW264.7 [13])	Activity (RAW264.7 [14])	further results
COc1cc(C[C@@H](CO)[C@H](COC(=O)CC(=O)O)Cc2ccc(O)c(OC)c2)ccc1O	71.1 pg/mg	173 µM	53.3 pg/mg	9.1 µM	66 pg/mg	–	–	–	–	Activity (RAW264.7 [2]): 73.1 pg/mg; Imax (RAW264.7 [5]): 27.3%
COc1cc(C[C@H]2COC(=O)[C@@H](C(=O)O)[C@@H](C)[C@@H](C(=O)O)C(=O)OC[C@@H]2Cc2ccc(O)c(OC)c2)ccc1O	73.3 pg/mg	> 200 µM	70.2 pg/mg	23.4 µM	71.3 pg/mg	–	–	–	–	Imax (RAW264.7 [8]): 23.5%; Activity (RAW264.7 [9]): 56 pg/mg
C/C=C/C(=O)OC[C@H](Cc1ccc(O)c(OC)c1)[C@H](CO)Cc1ccc(O)c(OC)c1	–	92 µM	–	7.3 µM	–	65.7 pg/mg	74.1 pg/mg	49.4 pg/mg	69.8 pg/mg	Imax (RAW264.7 [10]): 32.5%
COc1cc(C[C@@H](CO)[C@H](CO)Cc2ccc(O)c(OC)c2)ccc1O [(+)-SECOISOLARICIRESINOL]	–	132 µM	–	–	–	72.8 pg/mg	74.9 pg/mg	73 pg/mg	73 pg/mg	Imax (RAW264.7 [15]): 0%
C[C@@H]1C[C@H]2[C@@H]3CCC4=CC(=O)C=C[C@]4(C)[C@@]3(F)[C@@H](O)C[C@]2(C)[C@@]1(O)C(=O)CO [DEXAMETHASONE]	–	–	–	4.4 µM	–	–	–	–	–	Imax (RAW264.7 [16]): 47.9%
CN(C)c1ccc(C(=C2C=CC(=[N+](C)C)C=C2)c2ccc(N(C)C)cc2)cc1 [GENTIAN VIOLET]	–	1.1 µM	–	–	–	–	–	–	–	–
